The source of these data is US8133912B2 (priority 2006, dated 2012).

A short description of data set [1]: resolvability (solubility) in ultrapure water. The conditions noted are these: 5 mg scale in 50 μL ultrapure water, stirred.
For data set [2], the system named is mouse. The conditions noted are these: in vivo, po; cited from earlier work.
For data set [3], the system named is cell growth. The data set is classed as cell-based.

On to “methyl aquocobyrinic acid heptamethyl ester perchlorate [hydrophobic vitamin B12]”, for which the resolvability to water result in data set [1] is “not completely dissolved”.

On to “methyl aquocobyrinic acid sodium perchlorate”, for which the resolvability to water result in data set [1] was “No precipitate occurred”.

Take tetramethyl arsenic [TeMA]: the “LD50 (50% Lethal dose)” value in data set [2] is 900 mg/kg. The “IC50 (50% Growth inhibition)” value in data set [3] was determined as 8000 µg/mL.
